Results: PMC11684029, “Discovery of VU6024578/BI02982816: An mGlu1 Positive Allosteric Modulator with Efficacy in Preclinical Antipsychotic and Cognition Models” (Journal of Medicinal Chemistry, 2024)

Legend:
human mGlu1 = molecular target: T1, human mGlu1 (Homo sapiens, UniProt Q13255); experiment: mGlu1 calcium mobilization (triple-add) PAM assay; assay type: cell-based
T1 construct: expressed in transfected cells; pcDNA5/TO)
Experimental: Tetracycline-inducible human mGlu1 WT-T-REx-293 cells (Wu et al, Science 2014) were cultured at 37 °C in Dulbecco’s Modified Eagle Medium (DMEM) growth medium containing 10% Tet-tested FBS, 2 mM L-glutamine, 20 mM HEPES, 0.1 mM nonessential amino acids, 1 mM sodium pyruvate, antibiotic/antimycotic, 100 μg/mL hygromycin and 5 μg/mL blasticidin in the presence of 5% CO2. […] The mutant stable cell lines were generated in the same manner as the WT as previously described and cultured in the growth medium described above.
To determine the potency of mGlu1 PAMs in calcium assays, Ca flux was measured as previously described in ACS Chem. Bio. 2014, 9, 2334–2346. Briefly, the day before the assay, human mGlu1 WT-T-REx-293 cells were plated in black-walled, clear-bottomed, poly-D-lysine coated 96-well plates at 80,000 cells/100 μL assay medium (DMEM supplemented with 10% dialyzed FBS, 20 mM HEPES, and 1 mM sodium pyruvate) containing 50 ng/mL of tetracycline to induce mGlu1 expression. The next day, media was removed and the cells were incubated with 50 μL of 1.15 μM Fluo-4 AM dye solution prepared in assay buffer (buffer (Hank’s balanced salt solution, 20 mM HEPES, and 2.5 mM probenecid) for 45 min at 37 °C, the dye was removed and replaced with 45 μL of assay buffer. Then, calcium flux was measured using Flexstation II (Molecular Devices, Sunnyvale, CA). Compounds serially diluted at half log concentrations in DMSO were further diluted in assay buffer. The compounds or DMSO vehicle were added to cells and incubated for 2.5 min and an EC20 concentration of glutamate was added and incubated for 1 min. An ECmax concentration of glutamate was also added to cells that were incubated with DMSO vehicle to accurately calculate the EC20 calcium response. Data were normalized by subtracting the basal florescent peak before EC20 agonist addition from the maximal peak elicited by EC20 agonist and PAMs. Using GraphPad Prism 5.0, the concentration response curves were generated and the potencies of the mGlu1 PAMs were determined.

rat mGlu1 = rat mGlu1 (Rattus norvegicus, UniProt P23385); experiment: mGlu1 calcium mobilization PAM assay; assay type: cell-based; details: PAM, calcium flux
rat mGlu1, sequence (P23385 19-1199): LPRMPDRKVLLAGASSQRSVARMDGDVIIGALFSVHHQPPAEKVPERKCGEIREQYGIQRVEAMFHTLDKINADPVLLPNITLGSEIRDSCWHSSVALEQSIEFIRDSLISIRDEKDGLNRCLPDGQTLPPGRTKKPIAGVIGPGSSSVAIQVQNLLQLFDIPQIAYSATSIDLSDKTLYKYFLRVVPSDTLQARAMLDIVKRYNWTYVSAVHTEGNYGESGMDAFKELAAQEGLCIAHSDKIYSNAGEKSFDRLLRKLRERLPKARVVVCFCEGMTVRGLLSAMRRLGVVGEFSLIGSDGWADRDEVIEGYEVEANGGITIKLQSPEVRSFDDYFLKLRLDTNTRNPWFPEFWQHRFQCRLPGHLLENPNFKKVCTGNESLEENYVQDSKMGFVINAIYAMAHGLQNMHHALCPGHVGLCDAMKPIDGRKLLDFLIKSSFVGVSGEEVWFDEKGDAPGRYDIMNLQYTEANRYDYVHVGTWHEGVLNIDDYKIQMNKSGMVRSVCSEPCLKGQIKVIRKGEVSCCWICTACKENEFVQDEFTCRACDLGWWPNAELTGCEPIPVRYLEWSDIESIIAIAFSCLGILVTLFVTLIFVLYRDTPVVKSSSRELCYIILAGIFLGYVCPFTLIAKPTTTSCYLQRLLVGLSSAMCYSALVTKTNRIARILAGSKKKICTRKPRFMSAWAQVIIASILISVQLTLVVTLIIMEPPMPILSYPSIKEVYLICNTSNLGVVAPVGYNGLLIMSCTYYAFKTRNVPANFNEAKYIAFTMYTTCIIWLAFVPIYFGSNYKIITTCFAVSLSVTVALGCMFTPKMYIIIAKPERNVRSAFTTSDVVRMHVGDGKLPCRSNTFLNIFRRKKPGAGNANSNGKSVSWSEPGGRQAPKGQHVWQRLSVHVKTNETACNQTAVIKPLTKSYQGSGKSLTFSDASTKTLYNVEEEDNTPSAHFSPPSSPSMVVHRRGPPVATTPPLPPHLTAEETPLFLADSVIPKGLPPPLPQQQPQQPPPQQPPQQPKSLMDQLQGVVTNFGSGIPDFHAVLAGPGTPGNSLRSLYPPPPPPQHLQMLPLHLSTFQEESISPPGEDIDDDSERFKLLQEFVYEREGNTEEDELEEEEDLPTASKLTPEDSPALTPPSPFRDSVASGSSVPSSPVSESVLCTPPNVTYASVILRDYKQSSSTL

[1] = intrinsic clearance, predicted hepatic clearance; assay type: in vitro ADME, human; details: in vitro predicted hepatic clearance
Experimental: (§1) Human or rat hepatic microsomes (0.5 mg/mL) and 1 μM test compound were incubated in 100 mM potassium phosphate pH 7.4 buffer with 3 mM MgCl2 at 37 °C with constant shaking. After a 5 min preincubation, the reaction was initiated by addition of NADPH (1 mM). At selected time intervals (0, 3, 7, 15, 25, and 45 min), aliquots were taken and subsequently placed into a 96-well plate containing cold acetonitrile with internal standard (50 ng/mL carbamazepine). Plates were then centrifuged at 3000 rcf (4 °C) for 10 min, and the supernatant was transferred to a separate 96-well plate and diluted 1:1 with water for LC/MS/MS analysis. The in vitro half-life (T1/2, min, eq 1), intrinsic clearance (CLint, mL/min/kg, eq 2) and subsequent predicted hepatic clearance (CLhep, mL/min/kg, eq 3) was determined employing the following equations: [drawing 2] 1 where k represents the slope from linear regression analysis of the natural log percent remaining of test compound as a function of incubation time [drawing 3] 2
(§2) ^ascale-up factors: of 20 (human) or 45 (rat) [drawing 4] 3 where Qh (hepatic blood flow, mL/min/kg) is 21 (human) or 70 (rat).

[2] = intrinsic clearance, predicted hepatic clearance; assay type: in vitro ADME, rat; details: in vitro predicted hepatic clearance
Experimental: as §1, §2

[3] = plasma protein binding, equilibrium dialysis; assay type: in vitro ADME, rat; details: fraction unbound
Experimental: (§3) The protein binding of each compound was determined in plasma via equilibrium dialysis employing RED Plates (ThermoFisher Scientific, Rochester, NY). Plasma was added to the 96 well plate containing test compound and mixed thoroughly for a final concentration of 5 μM. Subsequently, an aliquot of the plasma-compound mixture was transferred to the cis chamber (red) of the RED plate, with an phosphate buffer (25 mM, pH 7.4) in the trans chamber. The RED plate was sealed and incubated for 4 h at 37 °C with shaking. At completion, aliquots from each chamber were diluted 1:1 with either plasma (cis) or buffer (trans) and transferred to a new 96 well plate, at which time ice-cold acetonitrile containing internal standard (50 ng/mL carbamazepine) (2 volumes) was added to extract the matrices. The plate was centrifuged (3000 rcf, 10 min) and supernatants transferred and diluted 1:1 (supernatant: water) into a new 96 well plate, which was then sealed in preparation for LC/MS/MS analysis. Each compound was assayed in triplicate within the same 96-well plate. Fraction unbound was determined using the following equation [drawing 1]

[4] = plasma protein binding, equilibrium dialysis; assay type: in vitro ADME, human; details: fraction unbound
Experimental: as §3

brain homogenate binding = assay type: in vitro ADME, rat; details: fraction unbound
[5] = PAM, calcium flux, EC20 glutamate

T1 sequence (Q13255 19-1194): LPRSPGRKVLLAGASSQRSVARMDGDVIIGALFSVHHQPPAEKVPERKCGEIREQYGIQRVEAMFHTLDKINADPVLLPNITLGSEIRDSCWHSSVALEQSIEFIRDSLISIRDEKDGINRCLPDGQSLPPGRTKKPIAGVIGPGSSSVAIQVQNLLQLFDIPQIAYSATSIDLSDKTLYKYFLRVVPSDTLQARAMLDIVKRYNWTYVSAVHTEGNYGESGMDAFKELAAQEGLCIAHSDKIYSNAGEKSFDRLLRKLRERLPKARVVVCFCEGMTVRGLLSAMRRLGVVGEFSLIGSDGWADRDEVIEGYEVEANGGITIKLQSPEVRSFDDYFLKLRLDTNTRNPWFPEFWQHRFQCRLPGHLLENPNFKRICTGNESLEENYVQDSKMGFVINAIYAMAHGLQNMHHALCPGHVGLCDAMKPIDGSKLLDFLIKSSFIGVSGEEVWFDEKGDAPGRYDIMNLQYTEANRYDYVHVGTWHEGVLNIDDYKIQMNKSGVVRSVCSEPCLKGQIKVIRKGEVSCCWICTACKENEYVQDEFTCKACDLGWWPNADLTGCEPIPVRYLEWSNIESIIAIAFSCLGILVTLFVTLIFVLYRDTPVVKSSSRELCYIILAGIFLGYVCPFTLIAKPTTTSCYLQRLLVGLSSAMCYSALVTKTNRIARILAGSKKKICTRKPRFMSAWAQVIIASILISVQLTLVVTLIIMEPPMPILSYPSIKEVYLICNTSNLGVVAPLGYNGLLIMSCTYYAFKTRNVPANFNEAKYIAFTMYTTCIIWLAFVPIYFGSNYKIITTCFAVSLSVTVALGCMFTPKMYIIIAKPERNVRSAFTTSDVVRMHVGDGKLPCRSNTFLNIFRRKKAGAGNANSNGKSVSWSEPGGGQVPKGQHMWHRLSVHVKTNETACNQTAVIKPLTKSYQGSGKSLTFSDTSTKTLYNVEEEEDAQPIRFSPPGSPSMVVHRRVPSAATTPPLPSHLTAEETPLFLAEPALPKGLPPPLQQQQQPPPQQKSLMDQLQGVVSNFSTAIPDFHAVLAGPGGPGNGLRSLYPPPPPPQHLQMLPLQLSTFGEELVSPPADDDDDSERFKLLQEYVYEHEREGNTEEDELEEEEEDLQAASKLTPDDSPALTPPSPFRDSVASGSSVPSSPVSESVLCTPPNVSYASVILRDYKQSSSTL

SMILES	EC50 (human mGlu1; [5]) [nM]	human mGlu1 Glumax (human mGlu1; [5]) [%]	improvement in mGlu1 PAM potency over HTS hit 6 (human mGlu1; human mGlu1 EC50 ratio) [fold]	EC50 (rat mGlu1) [nM]	rat mGlu1 Glumax (rat mGlu1) [%]	human mGlu1 EC50 (Glumax), result in words (human mGlu1; [5])	CLhep, human [1] [mL/min/kg]	CLhep, rat [2] [mL/min/kg]	rat fuplasma [3]	human fuplasma [4]	rat fubrain (brain homogenate binding)
COc1ccc(Cl)cc1C(=O)NCc1cnn2ccccc12 [Compound 6, 5-Chloro-2-methoxy-N-(pyrazolo[1,5-a]pyridin-3-ylmethyl)benzamide]	> 10000	71	–	–	–	–	–	–	–	–	–
COc1ccc(OC)c(C(=O)NCc2cnn3ccccc23)c1 [Compound 9a, 2,5-Dimethoxy-N-(pyrazolo[1,5-a]pyridin-3-ylmethyl)benzamide]	5120	45	–	–	–	–	–	–	–	–	–
COc1ccc(C)cc1C(=O)NCc1cnn2ccccc12 [Compound 9b, 2-Methoxy-5-methyl-N-(pyrazolo[1,5-a]pyridin-3-ylmethyl)benzamide]	7380	62	–	–	–	–	–	–	–	–	–
Cc1ccc(Cl)cc1C(=O)NCc1cnn2ccccc12 [Compound 9c, 5-Chloro-2-methyl-N-(pyrazolo[1,5-a]pyridin-3-ylmethyl)benzamide]	6060	47	–	–	–	–	–	–	–	–	–
O=C(NCc1cnn2ccccc12)c1cc(Cl)ccc1Cl [Compound 9d, 2,5-Dichloro-N-(pyrazolo[1,5-a]pyridin-3-ylmethyl)benzamide]	3790	46	~3	–	–	–	–	–	–	–	–
O=C(NCc1cnn2ccccc12)c1cc(-c2nccs2)ccc1Cl [Compound 9i, 2-Chloro-N-(pyrazolo[1,5-a]pyridin-3-ylmethyl)-5-(thiazol-2-yl)benzamide]	790	61	–	3150	79	–	–	–	–	–	–
Cn1nccc1-c1ccc(Cl)c(C(=O)NCc2cnn3ccccc23)c1 [Compound 9j, 2-Chloro-5-(1-methyl-1H-pyrazol-5-yl)-N-(pyrazolo[1,5-a]pyridin-3-ylmethyl)benzamide]	–	–	–	–	–	Inactive	–	–	–	–	–
O=C(NCc1noc(C2CC2)n1)c1cc(-c2ccco2)ccc1Cl [Compound 15c, 2-Chloro-N-((5-cyclopropyl-1,2,4-oxadiazol-3-yl)methyl)-5-(furan-2-yl)benzamide]	10000	44	–	–	–	–	–	–	–	–	–
O=C(NCc1nc(C2CC2)no1)c1cc(-c2ccco2)ccc1Cl [Compound 15d, 2-Chloro-N-((3-cyclopropyl-1,2,4-oxadiazol-5-yl)methyl)-5-(furan-2-yl)benzamide]	714	80	–	509	95	–	–	–	–	–	–

Other lines, results leading:

EC50 (human mGlu1; [5]) [nM]	human mGlu1 Glumax (human mGlu1; [5]) [%]	improvement in mGlu1 PAM potency over HTS hit 6 (human mGlu1; human mGlu1 EC50 ratio) [fold]	EC50 (rat mGlu1) [nM]	rat mGlu1 Glumax (rat mGlu1) [%]	human mGlu1 EC50 (Glumax), result in words (human mGlu1; [5])	CLhep, human [1] [mL/min/kg]	CLhep, rat [2] [mL/min/kg]	rat fuplasma [3]	human fuplasma [4]	rat fubrain (brain homogenate binding)	SMILES
434	33	–	1010	48	–	–	–	–	–	–	O=C(NCc1cnn2ccccc12)c1cc(-c2ccccc2)ccc1Cl [Compound 9f, 4-Chloro-N-(pyrazolo[1,5-a]pyridin-3-ylmethyl)-[1,1′-biphenyl]-3-carboxamide]
291	51	–	369	75	–	–	–	–	–	–	O=C(NCc1cnn2ccccc12)c1cc(-c2cccs2)ccc1Cl [Compound 9g, 2-Chloro-N-(pyrazolo[1,5-a]pyridin-3-ylmethyl)-5-(thiophen-2-yl)benzamide]
641	35	–	–	–	–	–	–	–	–	–	O=C(NCc1cnn2ccccc12)c1cc(-c2ccsc2)ccc1Cl [Compound 9h, 2-Chloro-N-(pyrazolo[1,5-a]pyridin-3-ylmethyl)-5-(thiophen-3-yl)benzamide]
211	96	–	–	–	–	19.4	60.9	0.009	0.001	–	O=C(NCc1cc(-c2ccccc2)no1)c1cc(-c2ccco2)ccc1Cl [Compound 15a, 2-Chloro-5-(furan-2-yl)-N-((3-phenylisoxazol-5-yl)methyl)benzamide]
39	56	–	62	106	–	19.9	61.8	0.004	0.001	0.005	O=C(NCc1noc(-c2ccccc2)n1)c1cc(-c2ccco2)ccc1Cl [Compound 15b, 2-Chloro-5-(furan-2-yl)-N-((5-phenyl-1,2,4-oxadiazol-3-yl)methyl)benzamide]
96	71	–	301	51	–	19.7	57.4	0.003	0.001	0.002	O=C(NCc1cnc(-c2cccs2)s1)c1cc(-c2ccco2)ccc1Cl [Compound 15e, 2-Chloro-5-(furan-2-yl)-N-((2-(thiophen-2-yl)thiazol-5-yl)methyl)benzamide]
188	60	–	280	74	–	20.3	57.1	0.025	0.036	0.019	Cn1nc(C(F)(F)F)cc1CNC(=O)c1cc(-c2ccco2)ccc1Cl [Compound 15f, 2-Chloro-5-(furan-2-yl)-N-((1-methyl-3-(trifluoromethyl)-1H-pyrazol-5-yl)methyl)benzamide]
56	69	–	20	109	–	19.0	54.8	0.002	0.002	0.003	Cn1nc(-c2cccs2)cc1CNC(=O)c1cc(-c2ccco2)ccc1Cl [Compound 19a, 2-Chloro-5-(furan-2-yl)-N-((1-methyl-3-(thiophen-2-yl)-1H-pyrazol-5-yl)methyl)benzamide]
195	85	–	133	116	–	18.6	56.4	0.002	0.002	0.003	Cn1nc(-c2ccccc2F)cc1CNC(=O)c1cc(-c2ccco2)ccc1Cl [Compound 19b, 2-Chloro-N-((3-(2-fluorophenyl)-1-methyl-1H-pyrazol-5-yl)methyl)-5-(furan-2-yl)benzamide]
74	60	–	124	116	–	18.8	51.7	0.015	0.023	0.021	Cn1nc(-c2cccnc2)cc1CNC(=O)c1cc(-c2ccco2)ccc1Cl [Compound 19c, 2-Chloro-5-(furan-2-yl)-N-((1-methyl-3-(pyridin-3-yl)-1H-pyrazol-5-yl)methyl)benzamide]
